The values below come from paper PMC10396310, “A succinate/SUCNR1-brush cell defense program in the tracheal epithelium” (Science Advances, 2023).

In general, EC50 refers to the concentration giving half of the maximal effect. Read a high EC50 as a need for much substance.

The assay concerns the target T1, succinate receptor 1 (SUCNR1; GPR91) (Mus musculus, UniProt Q99MT6).
T1 construct: native receptor in tracheal TRPM5+ brush cells (ex vivo whole mount)
T1 sequence (Q99MT6 1-317): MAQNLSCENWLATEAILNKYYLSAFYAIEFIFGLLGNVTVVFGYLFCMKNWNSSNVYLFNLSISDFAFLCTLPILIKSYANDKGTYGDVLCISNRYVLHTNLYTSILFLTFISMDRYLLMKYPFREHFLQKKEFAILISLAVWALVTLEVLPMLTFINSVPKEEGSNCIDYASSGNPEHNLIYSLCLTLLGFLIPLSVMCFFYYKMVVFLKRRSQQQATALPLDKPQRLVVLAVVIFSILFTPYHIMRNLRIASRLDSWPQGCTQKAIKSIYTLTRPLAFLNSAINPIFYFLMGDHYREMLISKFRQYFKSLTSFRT
The assay is described as follows: Ca2+ imaging (GCaMP6f) concentration-response in brush cells; Ca2+ wave lost in Sucnr1-/- mice.

Each structure is given as a SMILES string.

For `O=C(O)CCC(=O)O` [succinate], the EC50 came out at 335 ± 5 µM.
